Reference: patent US9833497B2, “Human originated EGF domain proteins and use of the same” (CHENGDU SOURCEBIO LIMITED-LIABILITY COMPANY, priority 2013, dated 2017)

How the values were obtained:
Type in all cases: cell-based
E. coli DH5α = assay: Antibacterial activity: MIC and growth curve against E. coli DH5α in 96-well plate; conditions: minimal inhibitory concentration against E. coli DH5α; 96-well plate, 5×10^5 CFU/mL, 37° C., judged after 8 h
In short: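 MIC taken as lowest protein level with no bacterial growth, tracked by A600 every 30 min during 37 °C, 175 rpm culture. Two-fold protein series 50-12.5 μg/mL final, triplicate wells, against 5×10^5 CFU/mL of LB-washed mid-log cells.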

E. coli BL21 = assay: MIC against Gram-negative bacteria: E. coli BL21
In short: (§1)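 LB broth cultures at McFarland 0.5, spun down, resuspended, diluted to 5×10^5 CFU/mL final. Two-fold serial dilutions of purified human EGF domain proteins, triplicate. 37° C, 175 rpm shaking. Endpoint: no visible growth.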

Pseudomonas aeruginosa = assay: MIC against Gram-negative bacteria: Pseudomonas aeruginosa
In short: as §1

Klebsiella pneumonia = assay: MIC against Gram-negative bacteria: Klebsiella pneumonia
In short: as §1

Enterobacter cloacae = assay: MIC against Gram-negative bacteria: Enterobacter cloacae
In short: as §1

Aeromonas hydrophila = assay: MIC against Gram-negative bacteria: Aeromonas hydrophila
In short: as §1

Citrobacter diversus = assay: MIC against Gram-negative bacteria: Citrobacter diversus
In short: as §1

Moraxella catarrhalis = assay: MIC against Gram-negative bacteria: Moraxella catarrhalis
In short: as §1

Proteus mirabilis = assay: MIC against Gram-negative bacteria: Proteus mirabilis
In short: as §1

Proteus vulgaris = assay: MIC against Gram-negative bacteria: Proteus vulgaris
In short: as §1

Serratia marcescens = assay: MIC against Gram-negative bacteria: Serratia marcescens
In short: as §1

[1] = E. coli BL21, 96-well plate, 5×10^5 CFU/mL, 37° C., 10 h
[2] = Pseudomonas aeruginosa, 96-well plate, 5×10^5 CFU/mL, 37° C., 10 h
[3] = Klebsiella pneumonia, 96-well plate, 5×10^5 CFU/mL, 37° C., 10 h
[4] = Enterobacter cloacae, 96-well plate, 5×10^5 CFU/mL, 37° C., 10 h
[5] = Aeromonas hydrophila, 96-well plate, 5×10^5 CFU/mL, 37° C., 10 h
[6] = Citrobacter diversus, 96-well plate, 5×10^5 CFU/mL, 37° C., 10 h
[7] = Moraxella catarrhalis, 96-well plate, 5×10^5 CFU/mL, 37° C., 10 h
[8] = Proteus mirabilis, 96-well plate, 5×10^5 CFU/mL, 37° C., 10 h
[9] = Proteus vulgaris, 96-well plate, 5×10^5 CFU/mL, 37° C., 10 h
[10] = Serratia marcescens, 96-well plate, 5×10^5 CFU/mL, 37° C., 10 h
[11] = 96-well plate, 5×10^5 CFU/mL, 37° C., 10 h

Substance | MIC (E. coli DH5α) [µg/mL] | MIC against E. coli BL21 (E. coli BL21; [11]) [µg/mL] | MIC against P. aeruginosa (Pseudomonas aeruginosa; [11]) [µg/mL] | MIC against K. pneumonia (Klebsiella pneumonia; [11]) [µg/mL] | MIC against E. cloacae (Enterobacter cloacae; [11]) [µg/mL] | MIC against A. hydrophila (Aeromonas hydrophila; [11]) [µg/mL] | MIC against C. diversus (Citrobacter diversus; [11]) [µg/mL] | MIC against M. catarrhalis (Moraxella catarrhalis; [11]) [µg/mL] | MIC against P. mirabilis (Proteus mirabilis; [11]) [µg/mL] | MIC against P. vulgaris (Proteus vulgaris; [11]) [µg/mL] | MIC against S. marcescens (Serratia marcescens; [11]) [µg/mL] | further results
PRT17 (AGHPCTRASGHPCLNGASCVPREAAYVCLCPGGFSGPHCE; listed as Homo sapiens) | 12.5 |  |  |  |  |  |  |  |  |  |  | MIC (μg/mL) E. coli BL21 (E. coli BL21; [1]): 12.5 µg/mL; MIC (μg/mL) P. aeruginosa (Pseudomonas aeruginosa; [2]): 12.5 µg/mL; MIC (μg/mL) K. pneumonia (Klebsiella pneumonia; [3]): 25 µg/mL; MIC (μg/mL) E. cloacae (Enterobacter cloacae; [4]): 50 µg/mL; MIC (μg/mL) A. hydrophila (Aeromonas hydrophila; [5]): 12.5 µg/mL; MIC (μg/mL) C. diversus (Citrobacter diversus; [6]): 50 µg/mL; MIC (μg/mL) M. catarrhalis (Moraxella catarrhalis; [7]): 25 µg/mL; MIC (μg/mL) P. mirabilis (Proteus mirabilis; [8]): 12.5 µg/mL; MIC (μg/mL) P. vulgaris (Proteus vulgaris; [9]): 50 µg/mL; MIC (μg/mL) S. marcescens (Serratia marcescens; [10]): 25 µg/mL
PRT1043 (HGPNCSQECRCHNGGLCDRFTGQCRCAPGYTGDRCR; listed as Homo sapiens) | 50 |  |  |  |  |  |  |  |  |  |  | MIC (E. coli BL21; E. coli BL21, 10 h cultivation at 37° C.): 12.5 µg/mL; MIC (Pseudomonas aeruginosa; P. aeruginosa, 10 h cultivation at 37° C.): 25 µg/mL; MIC (Klebsiella pneumonia; K. pneumonia, 10 h cultivation at 37° C.): 50 µg/mL; MIC (Enterobacter cloacae; E. cloacae, 10 h cultivation at 37° C.): 25 µg/mL; MIC (Aeromonas hydrophila; A. hydrophila, 10 h cultivation at 37° C.): 25 µg/mL; MIC (Citrobacter diversus; C. diversus, 10 h cultivation at 37° C.): 50 µg/mL; MIC (Moraxella catarrhalis; M. catarrhalis, 10 h cultivation at 37° C.): 25 µg/mL; MIC (Proteus mirabilis; P. mirabilis, 10 h cultivation at 37° C.): 12.5 µg/mL; MIC (Proteus vulgaris; P. vulgaris, 10 h cultivation at 37° C.): 50 µg/mL; MIC (Serratia marcescens; S. marcescens, 10 h cultivation at 37° C.): 50 µg/mL
PRT1327 (EINPCLENHGGCDKNAECTQTGPNQAACNCLPAYTGDGKVCT; listed as Homo sapiens) | 25 |  |  |  |  |  |  |  |  |  |  | MIC against E. coli BL21 (E. coli BL21; [1]): 12.5 µg/mL; MIC against P. aeruginosa (Pseudomonas aeruginosa; [2]): 50 µg/mL; MIC against K. pneumonia (Klebsiella pneumonia; [3]): 12.5 µg/mL; MIC against E. cloacae (Enterobacter cloacae; [4]): 50 µg/mL; MIC against A. hydrophila (Aeromonas hydrophila; [5]): 12.5 µg/mL; MIC against C. diversus (Citrobacter diversus; [6]): 12.5 µg/mL; MIC against M. catarrhalis (Moraxella catarrhalis; [7]): 12.5 µg/mL; MIC against P. mirabilis (Proteus mirabilis; [8]): 12.5 µg/mL; MIC against P. vulgaris (Proteus vulgaris; [9]): 12.5 µg/mL; MIC against S. marcescens (Serratia marcescens; [10]): 25 µg/mL
PRT445 (DVNECELYGQEGRPRLCMHACVNTPGSYRCTCPGGYRTLADGKSCE; listed as Homo sapiens) | 50 | 12.5 | 50 | 25 | 12.5 | 25 | 50 | 12.5 | 12.5 | 12.5 | 12.5 | 
PRT457 (DVDECLQGRCEQVCVNSPGSYTCHCDGRGGLKLSQDMDTCE; listed as Homo sapiens) | 50 | 25 | 12.5 | 50 | 25 | 12.5 | 25 | 50 | 12.5 | 50 | 12.5 | 
PRT659 (DADECVIFGPGLCPNGRCLNTVPGYVCLCNPGFHYDASHKKCE; listed as Homo sapiens) | 25 |  |  |  |  |  |  |  |  |  |  | MIC E. coli BL21 (E. coli BL21; [11]): 50 µg/mL; MIC P. aeruginosa (Pseudomonas aeruginosa; [11]): 25 µg/mL; MIC K. pneumonia (Klebsiella pneumonia; [11]): 12.5 µg/mL; MIC E. cloacae (Enterobacter cloacae; [11]): 25 µg/mL; MIC A. hydrophila (Aeromonas hydrophila; [11]): 50 µg/mL; MIC C. diversus (Citrobacter diversus; [11]): 25 µg/mL; MIC M. catarrhalis (Moraxella catarrhalis; [11]): 25 µg/mL; MIC P. mirabilis (Proteus mirabilis; [11]): 12.5 µg/mL; MIC P. vulgaris (Proteus vulgaris; [11]): 25 µg/mL; MIC S. marcescens (Serratia marcescens; [11]): 50 µg/mL
PRT1380 (SQRSCPRGCSQRGRCEGGRCVCDPGYTGDDC; listed as Homo sapiens) | 25 |  |  |  |  |  |  |  |  |  |  | MIC against E. coli BL21 (E. coli BL21; E. coli BL21, 5×10^5 CFU/mL, 10 h cultivation at 37° C.): 50 µg/mL; MIC against P. aeruginosa (Pseudomonas aeruginosa; Pseudomonas aeruginosa, 5×10^5 CFU/mL, 10 h cultivation at 37° C.): 12.5 µg/mL; MIC against K. pneumonia (Klebsiella pneumonia; Klebsiella pneumonia, 5×10^5 CFU/mL, 10 h cultivation at 37° C.): 50 µg/mL; MIC against E. cloacae (Enterobacter cloacae; Enterobacter cloacae, 5×10^5 CFU/mL, 10 h cultivation at 37° C.): 12.5 µg/mL; MIC against A. hydrophila (Aeromonas hydrophila; Aeromonas hydrophila, 5×10^5 CFU/mL, 10 h cultivation at 37° C.): 50 µg/mL; MIC against C. diversus (Citrobacter diversus; Citrobacter diversus, 5×10^5 CFU/mL, 10 h cultivation at 37° C.): 12.5 µg/mL; MIC against M. catarrhalis (Moraxella catarrhalis; Moraxella catarrhalis, 5×10^5 CFU/mL, 10 h cultivation at 37° C.): 50 µg/mL; MIC against P. mirabilis (Proteus mirabilis; Proteus mirabilis, 5×10^5 CFU/mL, 10 h cultivation at 37° C.): 50 µg/mL; MIC against P. vulgaris (Proteus vulgaris; Proteus vulgaris, 5×10^5 CFU/mL, 10 h cultivation at 37° C.): 50 µg/mL; MIC against S. marcescens (Serratia marcescens; Serratia marcescens, 5×10^5 CFU/mL, 10 h cultivation at 37° C.): 50 µg/mL
PRT560 (GSCHPAGLAPVDPALPEAQVPCMCRAHVEGPSCDRCKPGFWGLSPSNPEGCTR; listed as Homo sapiens) | 12.5 | 25 | 50 | 25 | 50 | 25 | 50 | 25 | 50 | 50 | 50 | 
PRT452 (DIDECTEMPFVCSQKCENVIGSYICKCAPGYLREPDGKTC; listed as Homo sapiens) | 12.5 | 12.5 | 12.5 | 12.5 | 50 | 12.5 | 50 | 25 | 12.5 | 25 | 50 | 
PRT1239 (TIPICEGPDACQKDEVCVKPGLCRCKPGFFGAHCS; listed as Homo sapiens) | 25 |  |  |  |  |  |  |  |  |  |  | MIC against E. coli BL21 (E. coli BL21; [1]): 12.5 µg/mL; MIC against P. aeruginosa (Pseudomonas aeruginosa; [2]): 50 µg/mL; MIC against K. pneumonia (Klebsiella pneumonia; [3]): 12.5 µg/mL; MIC against E. cloacae (Enterobacter cloacae; [4]): 50 µg/mL; MIC against A. hydrophila (Aeromonas hydrophila; [5]): 12.5 µg/mL; MIC against C. diversus (Citrobacter diversus; [6]): 50 µg/mL; MIC against M. catarrhalis (Moraxella catarrhalis; [7]): 12.5 µg/mL; MIC against P. mirabilis (Proteus mirabilis; [8]): 25 µg/mL; MIC against P. vulgaris (Proteus vulgaris; [9]): 50 µg/mL; MIC against S. marcescens (Serratia marcescens; [10]): 25 µg/mL
PRT549 (CDCSGNGDPNLLFSDCDPLTGACRGCLRHTTGPRCEICAPGFYGNALLPGNCTR; listed as Homo sapiens) | 12.5 | 50 | 12.5 | 50 | 12.5 | 50 | 12.5 | 25 | 12.5 | 25 | 12.5 | 
